# Laboratory results as given in patent US8906952B2, “Indole derivative or pharmaceutically acceptable salt thereof, preparation method thereof, and pharmaceutical composition for preventing or treating metabolic diseases containing same as active ingredient” (Korea Research Institute of Bioscience and Biotechnology, priority 2011, dated 2014).
# Legend:
# human DGAT1 = target: T1, human DGAT1 (Homo sapiens, UniProt O75907); test: DGAT enzyme inhibition test, hDGAT1 enzyme from sf9 insect cells; assay type: biochemical; details: enzyme from sf9 cells overexpressing hDGAT1; read-out: hDGAT-1 (sf9) IC50
# T1 construct: made in house; host or cells: sf9 insect cells
# T1 sequence (O75907 1-488): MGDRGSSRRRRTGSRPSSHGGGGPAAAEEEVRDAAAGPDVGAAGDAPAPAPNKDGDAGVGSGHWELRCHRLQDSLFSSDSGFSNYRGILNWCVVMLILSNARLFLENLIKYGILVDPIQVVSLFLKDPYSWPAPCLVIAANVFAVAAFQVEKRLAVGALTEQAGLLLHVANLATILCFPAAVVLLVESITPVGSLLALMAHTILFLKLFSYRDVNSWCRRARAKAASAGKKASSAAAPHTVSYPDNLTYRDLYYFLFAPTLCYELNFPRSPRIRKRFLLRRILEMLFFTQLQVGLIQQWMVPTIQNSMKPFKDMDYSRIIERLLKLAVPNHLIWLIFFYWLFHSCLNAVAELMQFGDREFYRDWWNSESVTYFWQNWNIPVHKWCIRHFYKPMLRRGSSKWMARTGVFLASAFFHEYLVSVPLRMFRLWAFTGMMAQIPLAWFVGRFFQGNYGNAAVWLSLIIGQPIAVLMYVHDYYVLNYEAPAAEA
# Outline: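 Microsomes (100–200 μg) from sf9 cells overexpressing the human enzyme were incubated 10 min at 25 °C with compound in 175 mM Tris-HCl pH 8.0, 100 mM MgCl2, BSA, 30 μM [14C]palmitoyl-CoA and 200 μM 1,2-dioleoylglycerol. Extracted [14C]triacylglycerol was counted by LSC. Inhibition was calculated from treated, untreated and no-enzyme counts.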
# hDGAT-1 (HuTu 80) = target: T2, hDGAT-1 (HuTu 80) (Homo sapiens, UniProt O75907); test: DGAT enzyme inhibition test, microsomal protein from human duodenal adenocarcinoma (Hutu 80); assay type: biochemical; details: microsomal protein from HuTu 80
# T2 construct: microsomal protein isolated from human duodenal adenocarcinoma (‘Hutu 80’); endogenous in cells; host or cells: HuTu 80 human duodenal adenocarcinoma cells (microsomes)
# T2 sequence (O75907 1-488): T1 sequence (O75907 1-488)
# Description: To investigate inhibitory effect of the compounds of Examples 1-33 against DGAT enzyme activity, DGAT enzyme inhibition and DGAT2 selectivity were investigated using zymogen including:
# 2) DGAT enzyme derived from human duodenal adenocarcinoma (‘Hutu 80’), and
# To be specific, for the purpose of measuring human-derived DGAT enzyme inhibitory activity, using the zymogen, including enzymes derived from insect cell overexpressing human DGAT1 and DGAT2 (‘sf9’), microsomal protein isolated from human duodenal adenocarcinoma (‘Hutu 80’), and microsomal protein isolated from rat, and according to Coleman et al., (Methods Enzymol., 98-103, 1992), and substrate including 1,2-diacylglycerol(Sigma, D0138) and [^14C]palmitoyl-CoA (Amersham, CFA583), the amount of radiation of [^14C]triacylglycerol produced after enzymatic reaction was measured.
# To be more specific, to the reaction solution containing 175 mM Tris-HCl (pH 8.0), 20 μl bovine serum albumin (10 mg/ml), 100 mM magnesium chloride, 30 μM [^14C]palmitoyl CoA (0.02 μCi, Amersham) and 200 μM 1,2-dioleoylglycerol, reagent dissolved in dimethylsulfoxide (10.0 μl) was added. After introducing 100 to 200 μg isolated microsomal protein and allowing the same to react at 25° C. for 10 min, the reaction was stopped by adding 1.5 ml stop solution (2-propanol:heptane:water=80:20:2, v:v:v). To isolate the product of the reaction (i.e., [^14C]triacylglycerol), 1 ml heptane and 0.5 ml distilled water were added and then decocted. After taking 1 ml supernatant, 2 ml alkaline ethanol solution (ethanol:0.5 N sodium hydroxide:water=50:10:40, v:v:v) were added and then decocted. After taking 0.65 ml supernatant from the decoction, the amount of radiation was measured with liquid scintillation counter (LSC). The DGAT inhibitory activity was calculated with Mathematical Expression 1 below:
# T denotes cpm of experimental group in which the enzymatic reaction solution was treated with the sample,
# C denotes cpm of control group in which the enzymatic reaction solution was not treated with the sample, and
# B denotes cpm of control group treated with the sample without zymogen.
# HepG2 cells = test: DGAT inhibitory effect in HepG2 cells (triglyceride production from [14C]glycerol); assay type: cell-based; details: Homo sapiens; for activity at 10 µM: HepG2, 6 h, DMSO control = 100, read-out: Triglyceride production rate (%)/HepG2 cells at 10 μM; for inhibition at 10 µM: HepG2, 10 μM, read-out: biosynthesis inhibition rate of triglyceride
# Outline: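 HepG2 cells, switched to FBS-free DMEM, were treated with compounds at 10 μM and given 0.2 mCi [14C]glycerol for 6 hr. Lipids were hexane:isopropanol-extracted, triglyceride separated by TLC and quantified by radio-imaging, normalised to cell protein. Production expressed relative to DMSO control set at 100.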
SMILES,IC50 (human DGAT1),IC50 (hDGAT-1 (HuTu 80)),activity at 10 µM (HepG2 cells),inhibition at 10 µM (HepG2 cells)
"CC(C)N(NC(=O)c1ccccc1)C(=O)/C=C/c1cn(CC2CC2)c2ccccc12 [Example 28, (E)-N′-(3-(1-(cyclopropylmethyl)-1H-indol-3-yl)acryloyl)-N′-isopropylbenzohydrazide]",41.6 µM,8.1 µM,64.4%,30 to 40%
"CC(C)N(NC(=O)c1ccccc1)C(=O)/C=C/c1cn(C(=O)c2ccccc2)c2ccccc12 [Example 32, (E)-N′-(3-(1-benzoyl-1H-indol-3-yl)acryloyl)-N′-isopropylbenzohydrazide]",5.7 µM,0.97 µM,91.4%,
"CC(C)N(NC(=O)c1cccc(Br)c1)C(=O)/C=C/c1cn(C(=O)OC(C)(C)C)c2ccccc12 [Example 12, (E)-tert-butyl 3-(3-(2-(3-bromobenzoyl)-1-isopropylhydrazinyl)-3-oxoprop-1-enyl)-1H-indole-1-carboxylate]",6.8 µM,2.6 µM,93.5%,
"COCCOc1cccc(C(=O)NN(C(=O)/C=C/c2cn(C(=O)OC(C)(C)C)c3ccccc23)C(C)C)c1 [Example 10, (E)-tert-butyl 3-(3-(1-isopropyl-2-(3-(2-methoxyethoxy)benzoyl)hydrazinyl)-3-oxoprop-1-enyl)-1H-indole-1-carboxylate]",36.4 µM,7.7 µM,62%,30 to 40%
